Results: patent US9119396B2, “Method for promoting plant growth” (SUMITOMO CHEMICAL COMPANY, LIMITED, priority 2011, dated 2015)

What was measured:
Type in all cases: in vivo
Wheat (cultivar: Apogee) = assay: Test Example 10: reduction of high-temperature stress by spraying treatment of wheat; conditions: spray solution 1 ppm, high-temperature stress 36° C./32° C. 7 days, 90 days after the stress treatment
Method: Evaluation Test for Reduction of High-Temperature Stress by Spraying Treatment of Wheat
Five wheat seeds were sown in the culture soil (AISAI) in each plastic pot and cultivated for 28 days in an artificial weather control room under the conditions of a temperature of 18° C. in daytime/15° C. in night, and an illuminance of 7,000 lux. Before the stress test, 3 individuals per pot were removed.
To 0.5 mg of the present compound 1 were added 120 mg of a mixture (weight ratio 1:1) of white carbon and ammonium polyoxyethylene alkyl ether sulfate and 300 μl of water. The mixture was finely ground by a wet grinding method to obtain a flowable formulation of the present compound 1. This flowable formulation was diluted with 500 ml of water. The mixture was diluted with RINO (manufactured by NIHON NOHYAKU CO., LTD) as a spreading agent to 5,000-fold dilution to obtain a spray solution containing 1 ppm of the present compound 1. […]
After the high-temperature stress treatment, the plants were cultivated in an artificial weather control room under the conditions of a temperature of 18° C. in daytime/15° C. in night, and a illuminance of 7,000 lux. Then, 90 days after the high-temperature stress treatment, the number and the weight of seeds in ears of the tested plants in 7 or 8 pots were measured, and the average values of the number and the weight of seeds per one ear were calculated. […]

[1] = system: Corn (cultivar: Kuromochi); assay: Test Example 2: promotion of growth by treatment of corn seeds; conditions: corn seed treatment, 50 g per 100 kg of seeds; cultivated 18 days at 27° C.
Method: Evaluation Test for Promotion of Growth by Treatment of Corn Seeds Corn (cultivar: Kuromochi) A blank slurry solution containing 10% (V/V) color coat red (Becker Underwood, Inc.), 10% (V/V) CF-Clear (Becker Underwood, Inc.) and 1.66% Maxim 4FS (Syngenta) was prepared. A slurry solution was prepared by dissolving the present compound 1 in the blank slurry solution such that 50 g of the compound is applied to each 100 kg of corn seeds. In a 50-ml centrifuge tube (manufactured by BD Japan), 0.35 ml of the slurry solution was placed for each 14.4 g of corn seeds and stirred until the solution was dried, thereby coating the seeds. In addition, seeds were coated with the blank slurry solution and used as seeds for a non-treated group. One of the treated seeds was sown in culture soil (AISAI) in each pot (55 mm in diameter×58 mm in height) and cultivated for 18 days under the conditions of a temperature of 27° C., an illuminance of 5,000 lux, and a day length of 16 hours. After the cultivation, the fresh weight of the overground part of the plants was measured. The experiment was performed in three replications for each treatment condition and the average weight per individual was calculated. […]

[2] = system: Rice (cultivar: Nipponbare); assay: Test Example 11: reduction of drought stress by treatment of rice seeds; conditions: rice seed treatment, 100 g per 100 kg of seeds; drought stress 2 days, then 14 days cultivation
Method: Evaluation Test for Reduction of Drought Stress by Treatment of Rice Seeds Rice (cultivar: Nipponbare) A blank slurry solution containing 5% (V/V) color coat red (Becker Underwood, Inc.), 5% (V/V) CF-Clear (Becker Underwood, Inc.) and 1% Maxim XL (Syngenta) was prepared. A slurry solution was prepared by dissolving the present compound 1 in the blank slurry solution such that 100 g of the compound is applied to each 100 kg of rice seeds. In a 50-ml centrifuge tube (manufactured by AGC TECHNO GLASS CO., LTD.), 0.3 ml of the slurry solution was placed for each 10 g of rice seeds and stirred until the solution was dried, thereby coating the seeds. In addition, seeds were coated with the blank slurry solution and used as seeds for a non-treated group. A filter paper was placed on the holes of a plug tray having 406 holes, and the rice seeds treated above were sown on the filter paper. […] Fourteen (14) days after the treatment, the fresh weight of the overground parts of five test plants in each treated group was measured. The experiment was performed in three replications in each treated group and the average value was calculated. […]

**Q.** Which “number of seeds per one ear vs non-treated group” value (Wheat (cultivar: Apogee)) does the source give for COC(=O)c1cc2cc(C(F)(F)F)ccc2s1 [compound 1] here?
**A.** much larger

**Q.** And the “weight of seeds per one ear vs non-treated group” value (Wheat (cultivar: Apogee))?
**A.** much larger

**Q.** What about the “fresh weight of the overground part of plants vs non-treated group” value [1] of the same compound?
**A.** much heavier

**Q.** What about the “fresh weight of the overground part of plants vs non-treated group” value [2] of the same compound?
**A.** much heavier
